Test results: PubChem BioAssay (NCI)
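Step 1: Grow cells in 96-well plates. Step 2: Expose to compound for 48 hours at 5 concentrations. Step 3: Interpolate endpoints linearly; if unreached, use highest concentration. TGI denotes the concentration required for complete inhibition of growth.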

Legend:
Assay in all cases: NCI tumour cell line growth inhibition, 48 h
SF-268 CNS = system: SF-268 CNS
UACC-62 melanoma = system: UACC-62 melanoma
ACHN renal = system: ACHN renal
SN12C renal = system: SN12C renal
UO-31 renal = system: UO-31 renal
RXF-631 renal = system: RXF-631 renal
NCI-H226 lung = system: NCI-H226 lung
SNB-75 CNS = system: SNB-75 CNS
MALME-3M melanoma = system: MALME-3M melanoma
OVCAR-8 ovarian = system: OVCAR-8 ovarian
UACC-257 melanoma = system: UACC-257 melanoma
DMS 114 small cell lung = system: DMS 114 small cell lung
TK-10 renal = system: TK-10 renal
OVCAR-3 ovarian = system: OVCAR-3 ovarian
SK-OV-3 ovarian = system: SK-OV-3 ovarian
OVCAR-5 ovarian = system: OVCAR-5 ovarian
SR leukemia = system: SR leukemia
MOLT-4 leukemia = system: MOLT-4 leukemia
HOP-92 NSCLC = system: HOP-92 NSCLC
U251 CNS = system: U251 CNS
RXF 393 renal = system: RXF 393 renal
KM20L2 colon = system: KM20L2 colon
NCI-H522 lung = system: NCI-H522 lung
NCI-H460 lung = system: NCI-H460 lung
CAKI-1 renal = system: CAKI-1 renal
LXFL 529 NSCLC = system: LXFL 529 NSCLC
A549 NSCLC = system: A549 NSCLC
DMS 273 small cell lung = system: DMS 273 small cell lung
SNB-19 CNS = system: SNB-19 CNS
A498 renal = system: A498 renal
CCRF-CEM leukemia = system: CCRF-CEM leukemia
HCT-116 colon = system: HCT-116 colon
HCC-2998 colon = system: HCC-2998 colon
KM12 colon = system: KM12 colon
IGROV1 ovarian = system: IGROV1 ovarian
M14 melanoma = system: M14 melanoma
DLD-1 colon = system: DLD-1 colon
SK-MEL-2 melanoma = system: SK-MEL-2 melanoma
M19-MEL melanoma = system: M19-MEL melanoma
HT29 colon = system: HT29 colon
SF-295 CNS = system: SF-295 CNS
786-0 renal = system: 786-0 renal
XF 498 CNS = system: XF 498 CNS
NCI-H23 lung = system: NCI-H23 lung
HCT-15 colon = system: HCT-15 colon
SNB-78 CNS = system: SNB-78 CNS
K-562 leukemia = system: K-562 leukemia
OVCAR-4 ovarian = system: OVCAR-4 ovarian
LOX IMVI melanoma = system: LOX IMVI melanoma
HOP-62 NSCLC = system: HOP-62 NSCLC
COLO 205 colon = system: COLO 205 colon
SF-539 CNS = system: SF-539 CNS
SK-MEL-5 melanoma = system: SK-MEL-5 melanoma
SW-620 colon = system: SW-620 colon
EKVX NSCLC = system: EKVX NSCLC
HL-60(TB) leukemia = system: HL-60(TB) leukemia
RPMI-8226 leukemia = system: RPMI-8226 leukemia
SK-MEL-28 melanoma = system: SK-MEL-28 melanoma
HOP-18 NSCLC = system: HOP-18 NSCLC

Which TGI (SF-268 CNS) does the source give for `Cc1c(C2Cc3ccccc3N2C(=O)/C=C\C(=O)O)c2ccccc2n1C` (stereo not given) here?
The TGI was 35.9 µM.

What about the TGI (UACC-62 melanoma) of the same molecule?
The TGI was 35.8 µM.

What about the TGI (ACHN renal) of the same molecule?
Its TGI is over 100 µM.

What about the TGI (SN12C renal) of the same molecule?
The TGI was 45.6 µM.

And the TGI (UO-31 renal)?
Its TGI is over 100 µM.

What about the TGI (RXF-631 renal) of the same molecule?
The TGI was over 100 µM.

What about the TGI (NCI-H226 lung) of the same molecule?
The TGI was 57.6 µM.

What about the TGI (SNB-75 CNS) of the same molecule?
The TGI was 74.2 µM.

What about the TGI (MALME-3M melanoma) of the same molecule?
Its TGI is over 100 µM.

What about the TGI (OVCAR-8 ovarian) of the same molecule?
Its TGI is 43.6 µM.

And the TGI (UACC-257 melanoma)?
Its TGI is 36.3 µM.

And the TGI (DMS 114 small cell lung)?
The TGI was 40 µM.

What about the TGI (TK-10 renal) of the same molecule?
The TGI was 44.6 µM.

What about the TGI (OVCAR-3 ovarian) of the same molecule?
The TGI was 43.1 µM.

And the TGI (SK-OV-3 ovarian)?
Its TGI is 48.5 µM.

What about the TGI (OVCAR-5 ovarian) of the same molecule?
The TGI was over 100 µM.

What about the TGI (SR leukemia) of the same molecule?
Its TGI is 85.8 µM.

What about the TGI (MOLT-4 leukemia) of the same molecule?
Its TGI is 93.3 µM.

And the TGI (HOP-92 NSCLC)?
Its TGI is 36.3 µM.

What about the TGI (U251 CNS) of the same molecule?
Its TGI is 40.6 µM.

And the TGI (RXF 393 renal)?
The TGI was 33.1 µM.

What about the TGI (KM20L2 colon) of the same molecule?
Its TGI is 58.3 µM.

What about the TGI (NCI-H522 lung) of the same molecule?
Its TGI is 46.4 µM.

And the TGI (NCI-H460 lung)?
Its TGI is over 100 µM.

And the TGI (CAKI-1 renal)?
Its TGI is 78.7 µM.

What about the TGI (LXFL 529 NSCLC) of the same molecule?
Its TGI is 34.8 µM.

And the TGI (A549 NSCLC)?
The TGI was over 100 µM.

What about the TGI (DMS 273 small cell lung) of the same molecule?
Its TGI is over 100 µM.

And the TGI (SNB-19 CNS)?
Its TGI is 37.2 µM.

And the TGI (A498 renal)?
Its TGI is 66.3 µM.

And the TGI (CCRF-CEM leukemia)?
Its TGI is over 100 µM.

And the TGI (HCT-116 colon)?
Its TGI is 94.1 µM.

And the TGI (HCC-2998 colon)?
The TGI was 39.5 µM.

What about the TGI (KM12 colon) of the same molecule?
The TGI was 35.6 µM.

And the TGI (IGROV1 ovarian)?
The TGI was 70.7 µM.

What about the TGI (M14 melanoma) of the same molecule?
Its TGI is 76.2 µM.

And the TGI (DLD-1 colon)?
The TGI was over 100 µM.

And the TGI (SK-MEL-2 melanoma)?
Its TGI is 32 µM.

What about the TGI (M19-MEL melanoma) of the same molecule?
Its TGI is 52.3 µM.

What about the TGI (HT29 colon) of the same molecule?
The TGI was over 100 µM.

And the TGI (SF-295 CNS)?
The TGI was 50.4 µM.

And the TGI (786-0 renal)?
The TGI was 49.3 µM.

What about the TGI (XF 498 CNS) of the same molecule?
The TGI was 31.5 µM.

And the TGI (NCI-H23 lung)?
Its TGI is 62.9 µM.

And the TGI (HCT-15 colon)?
The TGI was over 100 µM.

What about the TGI (SNB-78 CNS) of the same molecule?
The TGI was over 100 µM.

What about the TGI (K-562 leukemia) of the same molecule?
The TGI was over 100 µM.

And the TGI (OVCAR-4 ovarian)?
The TGI was over 100 µM.

What about the TGI (LOX IMVI melanoma) of the same molecule?
Its TGI is 32.6 µM.

What about the TGI (HOP-62 NSCLC) of the same molecule?
The TGI was 57.1 µM.

What about the TGI (COLO 205 colon) of the same molecule?
The TGI was 32.1 µM.

What about the TGI (SF-539 CNS) of the same molecule?
The TGI was 42.6 µM.

What about the TGI (SK-MEL-5 melanoma) of the same molecule?
Its TGI is 41.5 µM.

And the TGI (SW-620 colon)?
The TGI was 41.5 µM.

What about the TGI (EKVX NSCLC) of the same molecule?
Its TGI is 72.9 µM.

What about the TGI (HL-60(TB) leukemia) of the same molecule?
Its TGI is 51.6 µM.

With `C[C@H]1COC2(c3ccccc3)CCC(=O)N12` (stereo not given in full) as the molecule, how does the TGI (SF-268 CNS) read?
The TGI was over 100 µM.

And the TGI (UACC-62 melanoma)?
The TGI was over 100 µM.

What about the TGI (ACHN renal) of the same molecule?
The TGI was over 100 µM.

And the TGI (SN12C renal)?
The TGI was over 100 µM.

And the TGI (SNB-75 CNS)?
Its TGI is over 100 µM.

What about the TGI (MALME-3M melanoma) of the same molecule?
The TGI was over 100 µM.

And the TGI (OVCAR-8 ovarian)?
The TGI was over 100 µM.

And the TGI (UACC-257 melanoma)?
The TGI was over 100 µM.

And the TGI (DMS 114 small cell lung)?
Its TGI is over 100 µM.

And the TGI (TK-10 renal)?
Its TGI is over 100 µM.

And the TGI (OVCAR-3 ovarian)?
Its TGI is over 100 µM.

What about the TGI (OVCAR-5 ovarian) of the same molecule?
The TGI was over 100 µM.

What about the TGI (SR leukemia) of the same molecule?
The TGI was over 100 µM.

And the TGI (HOP-92 NSCLC)?
The TGI was over 100 µM.

What about the TGI (RPMI-8226 leukemia) of the same molecule?
Its TGI is over 100 µM.

What about the TGI (U251 CNS) of the same molecule?
The TGI was over 100 µM.

And the TGI (RXF 393 renal)?
The TGI was over 100 µM.

What about the TGI (KM20L2 colon) of the same molecule?
The TGI was over 100 µM.

And the TGI (NCI-H460 lung)?
The TGI was over 100 µM.

What about the TGI (CAKI-1 renal) of the same molecule?
The TGI was over 100 µM.

What about the TGI (A549 NSCLC) of the same molecule?
The TGI was over 100 µM.

What about the TGI (DMS 273 small cell lung) of the same molecule?
The TGI was over 100 µM.

What about the TGI (SNB-19 CNS) of the same molecule?
Its TGI is over 100 µM.

And the TGI (A498 renal)?
Its TGI is over 100 µM.

What about the TGI (CCRF-CEM leukemia) of the same molecule?
The TGI was over 100 µM.

And the TGI (HCT-116 colon)?
Its TGI is over 100 µM.

And the TGI (KM12 colon)?
The TGI was over 100 µM.

What about the TGI (IGROV1 ovarian) of the same molecule?
Its TGI is over 100 µM.

What about the TGI (DLD-1 colon) of the same molecule?
The TGI was over 100 µM.

And the TGI (SK-MEL-2 melanoma)?
Its TGI is over 100 µM.

And the TGI (M19-MEL melanoma)?
Its TGI is over 100 µM.

And the TGI (HT29 colon)?
The TGI was over 100 µM.

What about the TGI (SF-295 CNS) of the same molecule?
Its TGI is over 100 µM.

What about the TGI (SK-MEL-28 melanoma) of the same molecule?
The TGI was over 100 µM.

And the TGI (786-0 renal)?
The TGI was over 100 µM.

And the TGI (XF 498 CNS)?
Its TGI is over 100 µM.

And the TGI (NCI-H23 lung)?
The TGI was over 100 µM.

What about the TGI (HCT-15 colon) of the same molecule?
Its TGI is over 100 µM.

And the TGI (SNB-78 CNS)?
Its TGI is over 100 µM.

What about the TGI (HOP-18 NSCLC) of the same molecule?
Its TGI is over 100 µM.

What about the TGI (K-562 leukemia) of the same molecule?
Its TGI is over 100 µM.

And the TGI (OVCAR-4 ovarian)?
Its TGI is over 100 µM.

What about the TGI (LOX IMVI melanoma) of the same molecule?
Its TGI is over 100 µM.

What about the TGI (HOP-62 NSCLC) of the same molecule?
Its TGI is over 100 µM.

What about the TGI (COLO 205 colon) of the same molecule?
The TGI was over 100 µM.

What about the TGI (SF-539 CNS) of the same molecule?
The TGI was over 100 µM.

What about the TGI (SK-MEL-5 melanoma) of the same molecule?
Its TGI is over 100 µM.

And the TGI (SW-620 colon)?
Its TGI is over 100 µM.

What about the TGI (EKVX NSCLC) of the same molecule?
Its TGI is over 100 µM.
